{"source": "patent US20050220825A1", "about": "“Molecular dispersions of drospirenone” (priority 2004, published 2005)", "origin": "cited, not measured here", "key": {"[1]": {"conditions": "within 30 minutes, hydrochloric acid solution pH about 1.0"}, "[2]": {"conditions": "drospirenone in micronised form; background statement"}}}
{"smiles": "C[C@]12CCC(=O)C=C1[C@@H]1C[C@@H]1[C@H]1[C@@H]3[C@@H]4C[C@@H]4[C@@]4(CCC(=O)O4)[C@@]3(C)CC[C@@H]12", "note": "[drospirenone]", "values": [{"measurement": "drospirenone degraded into its therapeutically inactive isomer", "setting": "[1]", "result": "~50", "unit": "%"}, {"measurement": "drospirenone dissolved at 30 minutes after start of dissolution testing", "setting": "[2]", "result": "at least 70%"}]}
